Patent US20230065462A1, “Pharmaceutical composition and use thereof” (HENAN TAIFENG BIOLOGICAL TECHNOLOGY CO., LTD., priority 2020, published 2023)
“Also recorded” adds a separate entry of the source.

Legend:
Assay type in all cases: in vivo, Leghorn chickens
[1] = system: cockscomb capillaries; experiment: Cockscomb hemangioma model: number of capillaries (HE staining and computer image analysis); settings: x±s, high-power field
Method: (§1) The experimental cocks were anesthetized through intramuscular injection of 0.1 mg/kg Sumianxin, fixed, and cleaned, and after being disinfected, each cockscomb was marked with gentian violet to form 4 circles with a diameter of 1 cm in turn on one side of the each cockscomb from front to back, and was injected at the center of each circle: the blank control group was injected with 0.5 mL of solvent (water for injection), the positive control group was injected with 0.5 mL of 5 mg/ml lauromacrogol injection, and the groups A-I were injected with 0.5 mL of the corresponding 13.2 mg/mL injection of compositions 1-9, respectively, and the standard is that the surface tissue of the cockscomb turns white and produces a skin hill. As the thickness of the cockscomb was 8˜10 mm, only one side of the cockscomb is injected subcutaneously, and the non-injected side of the contralateral side was used as the self-control group. After the injection, the cocks were continued to raise under uniform conditions, eaten and drunk freely until the material was obtained.
(§2) The tissues at the injection site were taken, fixed in 10% neutral formaldehyde fixative for 48 hours, embedded in paraffin, sectioned, stained with conventional HE, and examined by light microscope at 3 days, 7 days, 14 days, and 28 days after drug injection, respectively.
The processed tissue sections were sorted according to the number, and observed through an optical microscope. The changes in the number of blood vessels in each tissue section were observed under the adjusted high-power field of view (DABX400), and the changes in the number of apoptosis were observed by the TUNEL method. Five fields of view were randomly selected under the high-power field of view, and the image was analyzed using Tmage Proplus 6.0 software.
All data were processed with SPSS statistical software, and the data were expressed as x±s.

[2] = system: vascular endothelial cells; experiment: Cockscomb hemangioma model: cell apoptosis detection (TUNEL method and computer image analysis); settings: x±s, high-power field
Method: as §1
The TUNEL method is used for cell apoptosis detection including cell detection and tissue specimen detection. The principle is that deoxyuridine triphosphate is connected to the 3′-OH end of broken DNA in apoptotic cells by the catalysis of deoxyribonucleotide terminal transferase, and then is also bound to the luciferin antibody linked with horseradish peroxidase, and thus, the apoptotic cells can be accurately positioned through the bond of the luciferin antibody with the horseradish peroxidase substrate diaminobenzidine. […]

[3] = system: cockscomb; experiment: Cockscomb hemangioma model: HE staining, histopathological changes under light microscope
From the text: The clean grade of male Leghorn chickens were selected and randomly divided into a blank control group, a positive control group and a pharmaceutical composition groups A-I, a total of 11 groups, each with 8 chickens. Four points were selected for the cockscomb of each cock as the drug injection point, and the cockscomb was observed, photographed, and sampled before the experiment and 3 days, 7 days, 14 days, and 28 days after the experiment.
as §1, §2

[4] = system: cockscomb; experiment: Cockscomb hemangioma model: general (naked eye) observation of cockscomb after drug injection
From the text: Animals: 88 Leghorn chickens of clean grade and raised under uniform feeding conditions in the same batch, male, weighing 1000 1500 g, 10 12 weeks old, provided by the Animal Experimental Center of Qinglongshan Animal Breeding Farm in Jiangning, Nanjing. The cockscomb is required to be plump, smooth, ruddy, and no lesion. All animals are reared in the same laboratory according to the requirements of clean grade, and they can eat and drink freely. The experimental process complies with the People's Republic of China “Regulations on the Management of Laboratory Animals” and ethical requirements. Test drugs: each component of the drug composition is commercially available. Citric acid, paeoniflorin, and gallic acid are mixed at the ratio described in the following table to obtain com[…]-I, respectively. Then, each composition was dissolved in water for injection to obtain an injection with a concentration of 13.2 mg/mL. The positive control group used lauromacrogol parenteral solution (Specification: 10 mL: 100 mg, Shaanxi Tianyu Pharmaceutical Co., Ltd.) as a sclerosing agent, and was prepared into a 5 mg/ml injection with water for injection before use. The clean grade of male Leghorn chickens were selected and randomly divided into a blank control group, a positive control group and a pharmaceutical composition groups A-I, a total of 11 groups, each with 8 chickens. Four points were selected for the cockscomb of each cock as the drug injection point, and the cockscomb was observed, photographed, and sampled before the experiment and 3 days, 7 days, 14 days, and 28 days after the experiment. […] As the thickness of the cockscomb was 8 10 mm, only one side of the cockscomb is injected subcutaneously, and the non-injected side of the contralateral side was used as the self-control group. After the injection, the cocks were continued to raise under uniform conditions, eaten and drunk freely until the material was obtained. Before drug injection, the general condition of the cockscomb, including shape, color, thickness, surface condition, etc., were observed and recorded with photos. After the drug injection, the observation was performed every day, and included: the color change of the cockscomb, whether the epidermis has white spots, whether the edema occurs, whether tissue necrosis occurs on the surface, whether scab occurs, whether scar occurs, and whether the scab falls off, and the time distribution of fall off. The observation were recorded by taking photos at four time points, i.e., 3 days, 7 days, 14 days, and 28 days after the drug injection, and meanwhile, the experimental cock was anesthetized and the tissues at the injection site were taken and examined by light microscope.

Substance: lauromacrogol [Positive control group]
- number of capillaries ([1]; 3 d): 47.05 ± 4.12
- number of capillaries ([1]; 7 d): 41.89 ± 4.25
- number of capillaries ([1]; 14 d): 36.59 ± 3.62
- number of capillaries ([1]; 28 d): 24.68 ± 4.33
- number of apoptotic cells ([2]; 3 d): 21.02 ± 3.56
- number of apoptotic cells ([2]; 7 d): 36.78 ± 3.87
- number of apoptotic cells ([2]; 14 d): 54.68 ± 3.65
- number of apoptotic cells ([2]; 28 d): 68.62 ± 3.27
- The internal and external conditions of subcutaneous capillary lumens of cockscomb after drug injection ([3]; 3 d): inflammatory cells in the peripheral tissues were infiltrated, interstitial edema was obvious, and a small amount of collagen fibers proliferated
- The morphology and number of subcutaneous capillaries of cockscomb after drug injection ([3]; 3 d): subcutaneous capillaries were destroyed and fused
- The internal and external conditions of subcutaneous capillary lumens of cockscomb after drug injection ([3]; 7 d): collagen fibers were further proliferated, and inflammatory cells infiltrated and interstitial edema decreased
- The morphology and number of subcutaneous capillaries of cockscomb after drug injection ([3]; 7 d): capillaries were further decreased
- The internal and external conditions of subcutaneous capillary lumens of cockscomb after drug injection ([3]; 14 d): collagen fibers continued to proliferate
- The morphology and number of subcutaneous capillaries of cockscomb after drug injection ([3]; 14 d): the number of blood vessels continued to decrease
- The internal and external conditions of subcutaneous capillary lumens of cockscomb after drug injection ([3]; 28 d): filled with a large number of collagen fibers
- The morphology and number of subcutaneous capillaries of cockscomb after drug injection ([3]; 28 d): the capillaries were significantly reduced
- Cockscomb edema after drug injection ([4]; 0 d): no
- The color and scab at the cockscomb injection site after drug injection ([4]; 0 d): white skin hills
- Cockscomb appearance after drug injection ([4]; 0 d, 0.5 mL subcutaneous injection per point): normal
- Cockscomb appearance after drug injection ([4]; 3 d): normal
- Cockscomb edema after drug injection ([4]; 3 d): mild edema
- The color and scab at the cockscomb injection site after drug injection ([4]; 3 d): dark red
- Cockscomb appearance after drug injection ([4]; 7 d): normal
- Cockscomb edema after drug injection ([4]; 7 d): the edema decreased
- The color and scab at the cockscomb injection site after drug injection ([4]; 7 d): light yellow
- Cockscomb appearance after drug injection ([4]; 14 d): normal
- Cockscomb edema after drug injection ([4]; 14 d): the edema gradually decreased; also recorded: faintly edema
- The color and scab at the cockscomb injection site after drug injection ([4]; 14 d): the center part of the drug injection site had a black scab, the surrounding part was yellow
- Cockscomb appearance after drug injection ([4]; 28 d): normal
- Cockscomb edema after drug injection ([4]; 28 d): with no edema and with scar
- The color and scab at the cockscomb injection site after drug injection ([4]; 28 d): the black scab at the injection site fell off, became light yellow
- appearance of the cockscomb ([4]; throughout the experiment): remained normal
